Results: patent US20230227466A1, “SUBSTITUTED THIENOPYRIMIDINES THAT INTERACT WITH THE RAS SUPERFAMILY FOR THE TREATMENT OF CANCERS, INFLAMMATORY DISEASES, RASOPATHIES, AND FIBROTIC DISEASE” (SHY Therapeutics, LLC, priority 2020, published 2023)
Like-named read-outs stand apart in the source and are kept apart here.

Legend:
[1] = tested on: ERK1/2 phosphorylation in Panc-1 cells; assay: Western ERK1/2 cell-based phosphorylation assay; design: species or system human; details: at 10 μM, values in brackets < > are activation %, not inhibition
Method in brief: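 Western blot with anti-phospho-p44/42 (Thr202/Tyr204) measured ERK1/2 phosphorylation after 15 min EGF (1.5 ng/ml) stimulation. Beforehand, serum-starved (0.5% FBS, overnight) Panc-1 cells received compounds for 6 h at 37 °C, at 10 μM final in 0.3% DMSO or as dilution series for IC50.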

[2] = tested on: Akt phosphorylation in Panc-1 cells; assay: Western AKT cell-based phosphorylation assay; design: species or system human; details: at 10 μM, values in brackets < > are activation %, not inhibition
Method in brief: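 Phospho-Akt (Ser473) western blot of Panc-1 lysates, with Ponceau S to confirm uniform loading. Before lysis, cells were serum-starved overnight (0.5% FBS), incubated 6 h at 37° C with 10 μM compound in 0.3% DMSO and stimulated 15 min with 1.5 ng/ml EGF.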

[3] = target: Rho-A (Homo sapiens, UniProt P61586); assay: Ras GTP binding domain inhibition assay (labeled-GTP competition, cell-free); design: made in house
Method in brief: (§1)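 First, the His-tagged protein was captured overnight at 4° C on nickel wells. Second, compound was applied at 20 μM or as a dilution series for IC50 over 3 h. Third, 100 nM Cy3- or Cy5-GTP was added for 45 min. Finally, wells were washed and bound label quantified.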

[4] = target: KRas wild type (Homo sapiens, UniProt P01116); assay: as above; design: made in house
Method in brief: as §1

[5] = target: Rac-1 (Homo sapiens, UniProt P63000); assay: as above; design: made in house
Method in brief: as §1

[6] = without SOS, read-out: Rho-A: % inh.
[7] = with SOS, read-out: KRas wild type + SOS: % inh.
[8] = without SOS, read-out: KRas wild type: % inh.
[9] = without SOS, read-out: Rac-1: % inh.
[10] = with SOS, read-out: Rho-A + SOS: % inh.
[11] = with SOS, read-out: Rac-1 + SOS: % inh.

SMILES	inhibition at 20 µM [3, 6] [%]	inhibition at 20 µM [4, 7] [%]	inhibition at 20 µM [4, 8] [%]	inhibition at 20 µM [5, 9] [%]	inhibition at 20 µM [3, 10] [%]	inhibition at 20 µM [5, 11] [%]	% inh of ERK1/2 phosphorylation in PANC-1 [1]	% inh of AKT phosphorylation in PANC-1 [2]
CO[C@H]1CC[C@@H](Nc2nc(-c3nccn3C)nc3sc(-c4cn(C)cn4)c(-c4ccccc4)c23)C1 (racemic) [Example 3, Rac-N-((1R,3S)-3-methoxycyclopentyl)-2-(1-methyl-1H-imidazol-2-yl)-6-(1-methyl-1H-imidazol-4-yl)-5-phenylthieno[2,3-d]pyrimidin-4-amine]	51 to 75	76 to 100	51 to 75	76 to 100	76 to 100	76 to 100	A (1-25% inhibition)	0 (0% inhibition)
COc1nc(-c2nccn2C)nc2c(-c3ncccc3F)csc12 [Compound 95, 7-(3-Fluoropyridin-2-yl)-4-methoxy-2-(1-methyl-1H-imidazol-2-yl)thieno[3,2-d]pyrimidine]	76 to 100	76 to 100	76 to 100	76 to 100	76 to 100	76 to 100	0 (0% inhibition)	0 (0% inhibition)
COCCn1ccnc1-c1nc(O)c2scc(-c3ccncc3)c2n1 [Compound 94, 2-(1-(2-Methoxyethyl)-1H-imidazol-2-yl)-7-(pyridin-4-yl)thieno[3,2-d]pyrimidin-4-ol]	76 to 100	51 to 75	51 to 75	76 to 100			0 (0% inhibition)	0 (0% inhibition)
COCCn1c(-c2nc(O)c3scc(-c4ccccn4)c3n2)nc2ccccc21 [Compound 87, 2-(1-(2-Methoxyethyl)-1H-benzo[d]imidazol-2-yl)-7-(pyridin-2-yl)thieno[3,2-d]pyrimidin-4-ol]	51 to 75	1 to 25	26 to 50	51 to 75			A (1-25% inhibition)	<A>
COc1ccn2c(-c3nc(O)c4scc(-c5ccccn5)c4n3)ncc2c1 [Compound 85, 2-(7-Methoxyimidazo[1,5-a]pyridin-3-yl)-7-(pyridin-2-yl)thieno[3,2-d]pyrimidin-4-ol]	51 to 75	1 to 25	51 to 75	51 to 75			0 (0% inhibition)	0 (0% inhibition)
CO[C@H]1C[C@@H](Nc2nc(-c3nccn3C)nc3sc(-c4cn(C)cn4)c(-c4ccccc4)c23)C1 [Example 2, N-((1s,3s)-3-methoxycyclobutyl)-2-(1-methyl-1H-imidazol-2-yl)-6-(1-methyl-1H-imidazol-4-yl)-5-phenylthieno[2,3-d]pyrimidin-4-amine]	76 to 100	76 to 100	76 to 100	51 to 75	76 to 100	51 to 75	C (51-75% inhibition)	0 (0% inhibition)

Further lines, with some results ahead:

inhibition at 20 µM [3, 6] [%]	inhibition at 20 µM [4, 7] [%]	inhibition at 20 µM [4, 8] [%]	inhibition at 20 µM [5, 9] [%]	inhibition at 20 µM [3, 10] [%]	inhibition at 20 µM [5, 11] [%]	SMILES	% inh of ERK1/2 phosphorylation in PANC-1 [1]	% inh of AKT phosphorylation in PANC-1 [2]
1 to 25	0	0	0			Oc1nc(-c2cccnc2)nc2c(-c3ccccn3)csc12 [Compound 89, 7-(Pyridin-2-yl)-2-(pyridin-3-yl)thieno[3,2-d]pyrimidin-4-ol]	A (1-25% inhibition)	0 (0% inhibition)
51 to 75	0	0	26 to 50			Cn1ccc(-c2nc(O)c3scc(-c4ccccn4)c3n2)n1 [Compound 90, 2-(1-Methyl-1H-pyrazol-3-yl)-7-(pyridin-2-yl)thieno[3,2-d]pyrimidin-4-ol]	0 (0% inhibition)	0 (0% inhibition)
76 to 100	51 to 75	51 to 75	76 to 100			Cc1cnc(-c2nc(O)c3scc(-c4ccccn4)c3n2)s1 [Compound 92, 2-(5-Methylthiazol-2-yl)-7-(pyridin-2-yl)thieno[3,2-d]pyrimidin-4-ol]	0 (0% inhibition)	0 (0% inhibition)
51 to 75	1 to 25	26 to 50	51 to 75			Oc1nc(-c2ccncn2)nc2c(-c3ccccn3)csc12 [Compound 88, 7-(Pyridin-2-yl)-2-(pyrimidin-4-yl)thieno[3,2-d]pyrimidin-4-ol]	<B>	<B>
0	0	0	0			Cn1nccc1-c1nc(O)c2scc(-c3ccccn3)c2n1 [Compound 91, 2-(1-Methyl-1H-pyrazol-5-yl)-7-(pyridin-2-yl)thieno[3,2-d]pyrimidin-4-ol]	0 (0% inhibition)	0 (0% inhibition)
51 to 75	26 to 50	51 to 75	51 to 75			COc1ccc2cnc(-c3nc(O)c4scc(-c5ccccn5)c4n3)n2c1 [Compound 86, 2-(6-Methoxyimidazo[1,5-a]pyridin-3-yl)-7-(pyridin-2-yl)thieno[3,2-d]pyrimidin-4-ol]	0 (0% inhibition)	B (26-50% inhibition)
